Results published in the supplement of paper PMC10307832.

Tests used:
Experiment in all cases: relative viability (nuclei count vs DMSO), 5 days (fraction); higher = more cells survive
H3255 = tested on: H3255
Summary of the method: (§1)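 Medians of duplicate plates are given as relative viability. That measure is the nuclei count in treated wells divided by the count in vehicle wells. Counts were taken on 4× images of lung cancer cell lines in 1536-well plates, 5 days after pin-tool dosing the day after seeding with one drug alone or a fixed anchor-drug dose plus five library-drug doses (not always all listed) in √10 steps.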

NCI-H1993 = tested on: NCI-H1993
Summary of the method: as §1

NCI-H1975 = tested on: NCI-H1975
Summary of the method: as §1

LU99A = tested on: LU99A
Summary of the method: as §1

NCI-H647 = tested on: NCI-H647
Summary of the method: as §1

NCI-H838 = tested on: NCI-H838
Summary of the method: as §1

LC-2-ad = tested on: LC-2-ad
Summary of the method: as §1

HCC-366 = tested on: HCC-366
Summary of the method: as §1

HCC-15 = tested on: HCC-15
Summary of the method: as §1

PC-3 [JPC-3] = tested on: PC-3 [JPC-3]
Summary of the method: as §1

HARA = tested on: HARA
Summary of the method: as §1

NCI-H2228 = tested on: NCI-H2228
Summary of the method: as §1

NCI-H661 = tested on: NCI-H661
Summary of the method: as §1

NCI-H1666 = tested on: NCI-H1666
Summary of the method: as §1

CAL-12T = tested on: CAL-12T
Summary of the method: as §1

NCI-H520 = tested on: NCI-H520
Summary of the method: as §1

NCI-H1734 = tested on: NCI-H1734
Summary of the method: as §1

SK-LU-1 = tested on: SK-LU-1
Summary of the method: as §1

COR-L 105 = tested on: COR-L 105
Summary of the method: as §1

NCI-H3122 = tested on: NCI-H3122
Summary of the method: as §1

PC-14 = tested on: PC-14
Summary of the method: as §1

Cc1cnc(-c2cnc(NCCNc3ccc(C#N)cn3)nc2-c2ccc(Cl)cc2Cl)[nH]1 + CC(C)C[C@H](NC(=O)[C@H](Cc1ccccc1)NC(=O)c1cnccn1)B(O)O [Bortezomib] (partner 0.002 µM)
relative viability (H3255; first compound 0.08 µM): 0.91
relative viability (H3255; first compound 0.253 µM): 0.563
relative viability (H3255; first compound 0.8 µM): 0.95
relative viability (H3255; first compound 2.53 µM): 0.656
relative viability (NCI-H1993; first compound 0.08 µM): 1.23
relative viability (NCI-H1993; first compound 0.253 µM): 1.07
relative viability (NCI-H1993; first compound 0.8 µM): 1.1
relative viability (NCI-H1993; first compound 2.53 µM): 1.26
relative viability (NCI-H1975; first compound 0.08 µM): 0.412
relative viability (NCI-H1975; first compound 0.253 µM): 0.391
relative viability (NCI-H1975; first compound 0.8 µM): 0.425
relative viability (NCI-H1975; first compound 2.53 µM): 0.328
relative viability (LU99A; first compound 0.08 µM): 1.27
relative viability (LU99A; first compound 0.253 µM): 1.12
relative viability (LU99A; first compound 0.8 µM): 1.29
relative viability (LU99A; first compound 2.53 µM): 1.18
relative viability (NCI-H647; first compound 0.08 µM): 0.943
relative viability (NCI-H647; first compound 0.253 µM): 0.836
relative viability (NCI-H647; first compound 0.8 µM): 1.05
relative viability (NCI-H647; first compound 2.53 µM): 0.994
relative viability (NCI-H838; first compound 0.08 µM): 0.853
relative viability (NCI-H838; first compound 0.253 µM): 0.757
relative viability (NCI-H838; first compound 0.8 µM): 0.889
relative viability (NCI-H838; first compound 2.53 µM): 0.99
relative viability (LC-2-ad; first compound 0.08 µM): 1.19
relative viability (LC-2-ad; first compound 0.8 µM): 1.04
relative viability (LC-2-ad; first compound 2.53 µM): 0.855
relative viability (HCC-366; first compound 0.08 µM): 1.09
relative viability (HCC-366; first compound 0.253 µM): 0.989
relative viability (HCC-366; first compound 0.8 µM): 0.967
relative viability (HCC-366; first compound 2.53 µM): 1.01
relative viability (HCC-15; first compound 0.08 µM): 1.01
relative viability (HCC-15; first compound 0.253 µM): 0.575
relative viability (HCC-15; first compound 0.8 µM): 1
relative viability (HCC-15; first compound 2.53 µM): 0.969
relative viability (PC-3 [JPC-3]; first compound 0.08 µM): 0.791
relative viability (PC-3 [JPC-3]; first compound 0.253 µM): 0.818
relative viability (PC-3 [JPC-3]; first compound 0.8 µM): 0.811
relative viability (PC-3 [JPC-3]; first compound 2.53 µM): 0.869
relative viability (HARA; first compound 0.08 µM): 1.05
relative viability (HARA; first compound 0.253 µM): 1.09
relative viability (HARA; first compound 0.8 µM): 1.08
relative viability (HARA; first compound 2.53 µM): 1.08
relative viability (NCI-H2228; first compound 0.08 µM): 1.04
relative viability (NCI-H2228; first compound 0.253 µM): 0.879
relative viability (NCI-H2228; first compound 0.8 µM): 0.986
relative viability (NCI-H2228; first compound 2.53 µM): 0.912
relative viability (NCI-H661; first compound 0.08 µM): 0.951
relative viability (NCI-H661; first compound 0.253 µM): 0.789
relative viability (NCI-H661; first compound 0.8 µM): 0.836
relative viability (NCI-H661; first compound 2.53 µM): 0.719
relative viability (NCI-H1666; first compound 0.08 µM): 0.824
relative viability (NCI-H1666; first compound 0.253 µM): 0.857
relative viability (NCI-H1666; first compound 0.8 µM): 0.764
relative viability (NCI-H1666; first compound 2.53 µM): 0.886
relative viability (CAL-12T; first compound 0.253 µM): 0.902
relative viability (CAL-12T; first compound 2.53 µM): 0.975
relative viability (NCI-H520; first compound 0.08 µM): 0.72
relative viability (NCI-H520; first compound 0.253 µM): 0.551
relative viability (NCI-H520; first compound 0.8 µM): 0.473
relative viability (NCI-H520; first compound 2.53 µM): 0.523
relative viability (NCI-H1734; first compound 0.08 µM): 0.942
relative viability (NCI-H1734; first compound 0.253 µM): 0.897
relative viability (NCI-H1734; first compound 0.8 µM): 0.87
relative viability (NCI-H1734; first compound 2.53 µM): 0.734
relative viability (SK-LU-1; first compound 0.08 µM): 1.26
relative viability (SK-LU-1; first compound 0.253 µM): 0.993
relative viability (SK-LU-1; first compound 0.8 µM): 1.34
relative viability (SK-LU-1; first compound 2.53 µM): 1.13
relative viability (COR-L 105; first compound 0.08 µM): 0.898
relative viability (COR-L 105; first compound 0.253 µM): 0.754
relative viability (COR-L 105; first compound 0.8 µM): 0.62
relative viability (COR-L 105; first compound 2.53 µM): 0.445
relative viability (NCI-H3122; first compound 0.08 µM): 1.03
relative viability (NCI-H3122; first compound 0.253 µM): 0.925
relative viability (NCI-H3122; first compound 0.8 µM): 0.997
relative viability (NCI-H3122; first compound 2.53 µM): 0.972
relative viability (PC-14; first compound 0.08 µM): 0.804
relative viability (PC-14; first compound 0.253 µM): 0.84
relative viability (PC-14; first compound 0.8 µM): 0.82
relative viability (PC-14; first compound 2.53 µM): 0.814
